{"source": "paper PMC6826021", "about": "(Disease Models & Mechanisms, 2019)", "key": {"Etx": {"system": "Etx", "settings": "cited from earlier work"}, "[1]": {"system": "Ca2+ influx in Etx-treated MDCK cells", "format": "cell-based, canine"}, "Etx-treated MDCK cells [2]": {"system": "Etx-treated MDCK cells", "format": "cell-based, canine"}, "[3]": {"system": "Etx-challenged C57BL/6 mice", "settings": "mouse, in vivo"}, "[4]": {"system": "ROS in Etx-treated MDCK cells", "format": "cell-based, canine"}, "[5]": {"biological_target": "Etx monomer binding to MDCK cells (Clostridium perfringens, UniProt Q02307)", "sequence (Q02307 46-306 limits assumed)": "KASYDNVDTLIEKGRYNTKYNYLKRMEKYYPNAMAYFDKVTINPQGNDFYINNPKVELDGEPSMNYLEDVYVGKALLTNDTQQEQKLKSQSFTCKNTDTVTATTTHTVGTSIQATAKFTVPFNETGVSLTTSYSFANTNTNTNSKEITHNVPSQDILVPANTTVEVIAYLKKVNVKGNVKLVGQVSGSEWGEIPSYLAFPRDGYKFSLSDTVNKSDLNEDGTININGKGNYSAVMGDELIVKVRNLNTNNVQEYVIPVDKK", "format": "cell-based"}, "Etx-treated MDCK cells [6]": {"system": "Etx-treated MDCK cells", "format": "cell-based, canine", "remark": "listed apart in the source"}, "C57BL/6 mice": {"system": "C57BL/6 mice", "settings": "mouse, in vivo"}, "Etx-Etx monomers": {"biological_target": "Etx-Etx monomers (Clostridium perfringens, UniProt Q02307)", "sequence (Q02307 46-306 limits assumed)": "as above", "format": "binding"}, "[7]": {"system": "HMGB1 translocation in Etx-treated MDCK cells", "format": "cell-based, canine"}, "[8]": {"biological_target": "Etx pore formation in DPPC/cholesterol liposomes (Clostridium perfringens, UniProt Q02307)", "sequence (Q02307 46-306 limits assumed)": "as above", "format": "biochemical"}, "[9]": {"system": "mitochondrial membrane potential in Etx-treated MDCK cells", "format": "cell-based, canine"}, "[10]": {"biological_target": "Etx heptamer (oligomerization) (Clostridium perfringens, UniProt Q02307)", "sequence (Q02307 46-306 limits assumed)": "as above", "format": "cell-based"}}}
{"smiles": "c1ccc2c(c1)Cc1cccc3noc-2c13", "note": "[6H-anthra[1,9-cd]isoxazol]", "values": [{"measurement": "inhibition of Etx binding or oligomerization", "setting": "Etx", "value": "none of them could inhibit"}]}
{"smiles": "O=C(O)CN(CCOCCOCCN(CC(=O)O)CC(=O)O)CC(=O)O", "note": "[EGTA, reference compound]", "values": [{"measurement": "Ca2+ influx, Fluo-4 AM intensity by FACS", "setting": "[1]", "value": "blocked the Etx-invoked influx"}]}
{"smiles": "CCCOC1O[C@H](CO)[C@@H](O)[C@H](O)[C@H]1O", "note": "(stereo partly drawn) [Glycoside-2]", "values": [{"measurement": "protection of Etx-treated MDCK cells", "setting": "Etx-treated MDCK cells [2]", "value": "concentration-dependent protection"}, {"measurement": "survival of Etx-challenged MDCK cells compared to Etx", "setting": "Etx-treated MDCK cells [2]", "value": "greater than 50%"}]}
{"smiles": "CCCCOC1O[C@H](CO)[C@@H](O)[C@H](O)[C@H]1O", "note": "(stereo partly drawn) [Glycoside-4]", "values": [{"measurement": "mice protected", "setting": "[3]", "value": 60, "unit": "%"}, {"measurement": "mice with improved liver (H&E)", "setting": "[3]", "value": 60, "unit": "%"}, {"measurement": "mice with protected brain structures (H&E)", "setting": "[3]", "value": 60, "unit": "%"}, {"measurement": "death rate", "setting": "[3]; ip, 50 mg/kg", "value": 40, "unit": "%"}, {"measurement": "ROS levels, DCFDA", "setting": "[4]", "value": "decreased levels of ROS"}, {"measurement": "cell survival upon Etx challenge (MTT), pre- and post-treatment", "setting": "Etx-treated MDCK cells [2]", "value": "increase in cell survival"}, {"measurement": "protection of Etx-treated MDCK cells", "setting": "Etx-treated MDCK cells [2]", "value": "highest survival efficiency"}, {"measurement": "survival of Etx-challenged MDCK cells compared to Etx", "setting": "Etx-treated MDCK cells [2]", "value": "greater than 50%"}, {"measurement": "effect on binding of Etx monomer to the cell membrane", "setting": "[5]", "value": "no effect"}, {"measurement": "Ca2+ entry, Fluo-4 AM fluorescence microscopy", "setting": "[1]", "value": "complete reduction in Ca^2+ entry"}, {"measurement": "Ca2+ influx, Fluo-4 AM intensity by FACS", "setting": "[1]", "value": "drastic reduction of Fluo-4 AM intensity"}, {"measurement": "PI+ cells", "setting": "Etx-treated MDCK cells [6]", "value": "drastic reduction in PI^+ cells"}, {"measurement": "annexin V+/PI+ cells (phosphatidylserine exposure)", "setting": "Etx-treated MDCK cells [6]", "value": "absence of annexin V^+/PI^+ cells"}, {"measurement": "mortality or clinical signs (seizures, convulsions and depression)", "setting": "C57BL/6 mice", "value": "No mortality or clinical signs"}, {"measurement": "Etx (protein-protein) interaction in SPR", "setting": "Etx-Etx monomers", "value": "no Etx (protein-protein) interaction could be seen"}, {"measurement": "HMGB1 localization", "setting": "[7]", "value": "largely remained in the nucleus"}, {"measurement": "effect on pore formation in Etx-treated liposomes", "setting": "[8]", "value": "tearings disappeared"}, {"measurement": "mitochondrial membrane potential (ΨΔm), JC-1", "setting": "[9]", "value": "could stabilize ΨΔm"}, {"measurement": "effect on Etx heptamer (oligomer) intensity", "setting": "[10]", "value": "substantial decrease in heptamer intensity"}]}
{"smiles": "CCCCCCOC1O[C@H](CO)[C@@H](O)[C@H](O)[C@H]1O", "note": "(stereo partly drawn) [Glycoside-6]", "values": [{"measurement": "protection of Etx-treated MDCK cells", "setting": "Etx-treated MDCK cells [2]", "value": "concentration-dependent protection"}, {"measurement": "survival of Etx-challenged MDCK cells compared to Etx", "setting": "Etx-treated MDCK cells [2]", "value": "greater than 50%"}]}
{"smiles": "c1ccc2nc3occc3cc2c1", "note": "[furo[2,3-b]quinoline]", "values": [{"measurement": "inhibition of Etx binding or oligomerization", "setting": "Etx", "value": "none of them could inhibit"}]}
{"smiles": "C[C@H](CCC(=O)O)C[C@H](C)C[C@H](C)C(=O)/C=C(\\O)[C@H](C)C[C@H](C)C/C=C/[C@@H](C)[C@@H](O)[C@@H](C)[C@@H](O)C[C@@H]1CC[C@@](C)([C@H]2CC[C@@](C)([C@@H](C)O)O2)O1", "note": "[ionomycin, reference compound]", "values": [{"measurement": "Ca2+ influx, Fluo-4 AM intensity by FACS", "setting": "[1]", "value": "Clear intensity shift"}]}
